# US20230320995A1, “IONIZABLE CATIONIC LIPIDS AND LIPID NANOPARTICLES” (CAPSTAN THERAPEUTICS, INC., priority 2022, published 2023)
# Legend:
# [1] = ex vivo stability in mouse plasma; format: in vitro ADME; settings: 37° C.; for ex vivo Mouse Plasm Stability % Remaining at 2 Hours: CD-1 mouse plasma, 1 μM lipid
# Procedure: To determine the stability of the disclosed lipids in mouse plasma lipid stock solution was prepared by dissolution of the lipid in isopropanol at the concentration of 5 mg/mL. A requisite volume of the lipid-isopropanol solution was then diluted to 100 μM concentration at a total volume of 10.0 mL with 50:50 (v/v) ethanol/water. Ten microliters of this 100 μM solution was spiked into 10.0 mL of mouse plasma (BioIVT, Lot MSE394920, CD-1 mouse, anticoagulant: sodium heparin, not filtered) that was prewarmed to 37° C. and stirred at 50 rpm with a magnetic stir bar. The starting concentration of lipids in plasma was thus 1 μM. Aliquots (50 μL) were taken after 0, 15, 30, 45, 60, and 120 minutes, transferred to microcentrifuge tubes and quenched with three volumes (150 μL) of ice cold acetonitrile/methanol (4:1). Positive control incubations utilized the same plasma, with Benfluorex (1 μM) as the substrate with Labetalol (1.0 μgl) as the in situ disappearance. The quenched solutions were vortexed, centrifuged for 5 minutes at 13,000 rpm, and supernatant (100 μL) transferred to a 96-well plate and diluted with water (200 μL, 0.1% FA). After filtration through a 0.45 μm 96-well filtering plate, the filtrates were analyzed by LC-MS (Waters AQUITY I-class UPLC system, ThermoScientific Vanquish UPLC system consisting of a binary pump, autosampler, and column compartment, Waters Xevo G2-XS QT of mass spectrometer; Phenomenex F5, 1.7 μm, 2.1×50 mm column). Mobile phase A was 0.1% formic acid in water, and mobile phase B was 0.1% formic acid in acetonitrile. The flow rate was 0.6 mL/min. Elution gradient was as follows: time, 0.5 min: 20% B; 0.5-2 min: 20-100% B; 2-4.8 min: 100% B; 4.8-5.45 min: 100-20% B. Mass spectrometry was in positive scanning mode from 600-1100 m/z. The peak of the molecular ion of the lipids was integrated in extracted ion chromatography (XIC) using Xcalibur software (Thermo Fisher). The relative peak area compared to T=0, after normalization by the peak area of the internal standard, was used as the percentage of the lipid remaining at each time point. T1/2 values were calculated using the first-order decay model.
# [2] = physical-chemical properties of CD5-targeted tLNP encapsulating mCherry mRNA; format: physicochemical; settings: for Hydrodynamic diameter: anti-CD5 tLNP: ionizable lipid/DSPC/cholesterol/DMG-PEG 2000/DSPE-PEG2000-Maleimide 50:10:38.5:1.4:0.1
# Text: CleanCap® mCherry 5-methoxyuridine (5moU) mRNA (L-7203) was purchased from TriLink. mRNA was encapsulated in LNP using a self-assembly process in which an aqueous solution of mRNA at pH=3.5 is rapidly mixed with a solution of lipids dissolved in ethanol, then followed by stepwise phosphate and Tris buffer dilution and TFF purification. LNP composition in this study was: ionizable cationic lipid/distearoylphosphatidylcholine/cholesterol/DMG-PEG 2000/distearoylphosphatidyl ethanolamine(DSPE)-PEG2000-Maleimide (50:10:38.5:1.4:0.1 mol/mol) and were encapsulated at an N/P ratio (the ratio of positively-chargeable […] amine (N=nitrogen) groups to negatively-charged nucleic acid phosphate (P) groups) at 6. The hydrodynamic diameter of the nanoparticles was measured by dynamic light scattering using a Zetasizer Nano ZS (Malvern Instruments Ltd., Malvern, UK) instrument.
# Next, an anti-CD5 mAb was conjugated to the above LNP to generate tLNP. Purified rat anti-mouse CD5 antibody, clone 53-7.3 (BioLegend), was coupled to LNP via N-succinimidyl S-acetylthioacetate (SATA)-maleimide conjugation chemistry. Briefly, LNPs with DSPE-PEG(2000)-maleimide incorporated were formulated and stored at 4° C. on the day of conjugation. The antibody was modified with SATA (Sigma-Aldrich) to introduce sulfhydryl groups at accessible lysine residues allowing conjugation to maleimide. SATA was deprotected using 0.5 M hydroxylamine followed by removal of the unreacted components by G-25 Sephadex Quick Spin Protein columns (Roche Applied Science, Indianapolis, IN). The reactive sulfhydryl group on the antibody was then conjugated to maleimide moieties on the LNPs using thioether conjugation chemistry. Purification was performed using Sepharose CL-4B gel filtration columns (Sigma-Aldrich). tLNPs (LNPs conjugated with a targeting antibody) were frozen at −80° C. Others have conjugated antibody to free functionalized PEG-lipid and then incorporated the conjugated lipid into pre-formed LNP.
# mRNA content was determined using a Quant-iT™ RiboGreen RNA assay kit (Invitrogen™). Encapsulation efficiency was calculated by determining the unencapsulated mRNA content by measuring the fluorescence intensity (Fi) upon the addition of RiboGreen reagent to the LNP and comparing this value to the total fluorescence intensity (Ft) of the RNA content that is obtained upon lysis of the LNPs by 1% Triton X-100, where % encapsulation=(Ft−Fi)/Ft x 100).
# The particle size (hydrodynamic diameter) and polydispersity index of the targeted lipid nanoparticles were determined using dynamic light scattering (DLS) on a Malvern Zetasizer Nano ZS (Malvern Instruments, Worcestershire, UK). Size measurement was carried out in pH 7.4 Tris buffer at 25° C. in relevant disposable capillary cells. A non-invasive back scatter system (NIBS) with a scattering angle of 173° was used for size measurements.
# mouse splenic T cells = assay: targeted transfection of T cells in vitro with CD5-targeted tLNP; format: cell-based; settings: activated mouse splenic T cells, 0.6 μg tLNP per well; for transfection rate (proportion of CD3+ cells mCherry positive): 1 hour, read next day
# Procedure: To assess the performance of tLNP described in Example 35 they were used to transfect mouse T cells in tissue culture. Mouse splenic T cells were isolated from mechanically dissociated mouse spleens using a standard T cell isolation kit (Stem Cell Technologies #19851). Isolated T cells were cultured in complete RPMI medium supplemented with murine interleukin-2 in the presence of CD3/CD28 T cell activation beads (Gibco #11453D) for 3 days. Following activation, T cells were magnetically separated from the activation beads and transferred to a 96-well plate at a concentration of 2×10^5 cells per well in 100 μL of complete RPMI medium. tLNP formulations as described in Example 35 (above) were diluted to 100 μg/mL and 6 μL (0.6 μg) of tLNP was added to each well of cells to be tested. Cells were incubated with tLNPs at 37° C. for 1 hour before tLNPs were washed away by centrifuging the plate, removing the supernatant, and replacing with fresh medium. Transfected cells were then returned to the incubator overnight. The next day, cells were washed and resuspended in stain buffer containing fluorescently tagged antibodies against T cells markers for 30 minutes before a final wash. After washing, cells were resuspended in stain buffer and run on the Novocyte Quanteon flow cytometer to detect mCherry expression as well as murine T cell markers. Results for CD3^+ T cells are depicted in FIG. 6.
SMILES,"half-life at 1 μM ([1]; CD-1, mouse plasma) [h]",ex vivo Mouse Plasm Stability % Remaining at 2 Hours [1] [%],Hydrodynamic diameter ([2]; DLS) [nm],level of mCherry expression (MFI) (mouse splenic T cells),transfection rate (proportion of CD3+ cells mCherry positive) (mouse splenic T cells),"PDI (polydispersity index) ([2]; anti-CD5 tLNP, DLS)","Encapsulation Efficiency ([2]; anti-CD5 tLNP, RiboGreen assay) [%]"
CCCCCCCCC(=O)OCC(COC(=O)CCCCCCCC)CC(=O)OCCN(CCOC(=O)CC(COC(=O)CCCCCCCC)COC(=O)CCCCCCCC)C(=O)OCCN(C)C [Compound A-11],< 10,86,93,high level of expression,~80%,,
CCCCCCCCCC(=O)OCC(COC(=O)CCCCCCCCC)CC(=O)OCCN(CCOC(=O)CC(COC(=O)CCCCCCCCC)COC(=O)CCCCCCCCC)C(=O)NCCCN(C)C [Compound A-2],,72,105,,"poor, but still positive",0.20,99
